Experimental data: PubChem BioAssay AID248 (DTP/NCI, 2004)
Toxic doses and inconclusive results are not listed. No stated cut-off is given here; in the data, active means T/C of 150% or more; inactive means T/C below 125%.

Tested on: L1210 leukemia ip in BDF1 mice, survival T/C
Assay: NCI In Vivo Anticancer Drug Screen. Data for tumor model L1210 Leukemia (intraperitoneal) in B6D2F1 (BDF1) mice
Settings: endpoint: mean survival time, higher = longer survival
How it was run: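 In this screen, tumor-bearing mice given compound are compared to those given vehicle, and their survival values are reported as a treated-to-control quotient.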

[1] = dose: 100.0 mg/kg/injection, schedule: Q01DX009 (ip), vehicle: Klucel (hydroxypropylcellulose) (HPC)
[2] = dose: 200.0 mg/kg/injection, schedule: Q01DX009 (ip), vehicle: Klucel (hydroxypropylcellulose) (HPC)
[3] = dose: 100.0 mg/kg/injection, schedule: Q04DX003 (ip), vehicle: saline with Tween-80
[4] = dose: 200.0 mg/kg/injection, schedule: Q04DX003 (ip), vehicle: saline with Tween-80
[5] = dose: 75.0 mg/kg/injection, schedule: Q01DX001 (ip), vehicle: saline
[6] = dose: 150.0 mg/kg/injection, schedule: Q01DX001 (ip), vehicle: saline
[7] = dose: 100.0 mg/kg/injection, schedule: Q04DX003 (ip), vehicle: Klucel (hydroxypropylcellulose) (HPC)
[8] = dose: 200.0 mg/kg/injection, schedule: Q04DX003 (ip), vehicle: Klucel (hydroxypropylcellulose) (HPC)
[9] = dose: 400.0 mg/kg/injection, schedule: Q01DX009 (ip), vehicle: Klucel (hydroxypropylcellulose) (HPC)
[10] = dose: 400.0 mg/kg/injection, schedule: Q04DX003 (ip), vehicle: Klucel (hydroxypropylcellulose) (HPC)
[11] = dose: 50.0 mg/kg/injection, schedule: Q01DX009 (ip), vehicle: saline with Tween-80
[12] = dose: 100.0 mg/kg/injection, schedule: Q01DX009 (ip), vehicle: saline with Tween-80
[13] = dose: 200.0 mg/kg/injection, schedule: Q01DX009 (ip), vehicle: saline with Tween-80
[14] = dose: 50.0 mg/kg/injection, schedule: Q01DX009 (ip), vehicle: Klucel (hydroxypropylcellulose) (HPC)
[15] = dose: 100.0 mg/kg/injection, schedule: Q01DX001 (ip), vehicle: saline
[16] = dose: 100.0 mg/kg/injection, schedule: Q04DX003 (ip), vehicle: saline
[17] = dose: 200.0 mg/kg/injection, schedule: Q01DX001 (ip), vehicle: saline
[18] = dose: 200.0 mg/kg/injection, schedule: Q04DX003 (ip), vehicle: saline
[19] = dose: 400.0 mg/kg/injection, schedule: Q01DX001 (ip), vehicle: saline
[20] = dose: 400.0 mg/kg/injection, schedule: Q04DX003 (ip), vehicle: saline
[21] = dose: 100.0 mg/kg/injection, schedule: Q01DX001 (ip), vehicle: saline with Tween-80
[22] = dose: 200.0 mg/kg/injection, schedule: Q01DX001 (ip), vehicle: saline with Tween-80
[23] = dose: 400.0 mg/kg/injection, schedule: Q01DX001 (ip), vehicle: saline with Tween-80

Measured: T/C

CCCCCCCCCCCC(=O)[O][Sn]([CH2]c1ccccc1)([CH2]c1ccccc1)[CH2]c1ccccc1
inactive: dose: 0.5 mg/kg/injection, schedule: Q04DX003 (ip), vehicle: other 99 % of control | dose: 0.75 mg/kg/injection, schedule: Q01DX009 (ip), vehicle: other 97 % of control | dose: 1.0 mg/kg/injection, schedule: Q04DX003 (ip), vehicle: other 99 % of control | dose: 1.5 mg/kg/injection, schedule: Q01DX009 (ip), vehicle: other 94 % of control | dose: 3.0 mg/kg/injection, schedule: Q01DX009 (ip), vehicle: other 97 % of control | dose: 3.0 mg/kg/injection, schedule: Q04DX003 (ip), vehicle: other 100 % of control

Nc1cc(S(=O)(=O)F)cc(Cl)c1O
inactive: [1] 105 % of control | [2] 103 % of control

CCCCCCCCSCC(=O)O
inactive: [3] 103 % of control | [4] 97 % of control

O=[As](O)(O)c1ccccc1Br
inactive: [5] 111 % of control | [6] 105 % of control | dose: 300.0 mg/kg/injection, schedule: Q01DX001 (ip), vehicle: saline 102 % of control

COc1ccc(CC(CO)C(CO)Cc2ccc(OC)c(OC)c2)cc1OC (centres undefined)
inactive: [1] 97 % of control | [7] 98 % of control | [2] 93 % of control | [8] 101 % of control | [9] 93 % of control | [10] 100 % of control

Cc1nc(N2CCCCC2)[nH]c(=O)c1CN(C)N=O
inactive: [11] 94 % of control | [12] 94 % of control | [13] 102 % of control

Cc1nc(N)[nH]c(=O)c1CCCCc1ccccc1
inactive: [14] 98 % of control | [1] 102 % of control | [2] 95 % of control

CN1C(=O)CN=C(c2ccc[nH]2)c2cc(Cl)ccc21 (tested in a mixture with another compound)
inactive: [1] 96 % of control | [7] 103 % of control | [2] 91 % of control | [8] 102 % of control | [10] 105 % of control

CC(C)CC(CC(C)C)C(=O)C1C2CCC(O2)C1C(=O)C(CC(C)C)CC(C)C (centres undefined)
inactive: dose: 6.25 mg/kg/injection, schedule: Q04DX002 (ip), vehicle: saline with Tween-80 94 % of control | dose: 12.5 mg/kg/injection, schedule: Q04DX002 (ip), vehicle: saline with Tween-80 94 % of control | dose: 25.0 mg/kg/injection, schedule: Q04DX002 (ip), vehicle: saline with Tween-80 86 % of control

Cc1ccc(O)c[n+]1[O-]
inactive: [15] 94 % of control | [1] 103 % of control | [16] 101 % of control | [17] 97 % of control | [2] 94 % of control | [18] 97 % of control | [19] 100 % of control | [9] 103 % of control | [20] 103 % of control

CC(=O)c1c(C)[nH]c(C(=O)O)c1C
inactive: [21] 103 % of control | [22] 100 % of control | [23] 90 % of control

CC(C)CCCC(C)C1CCC2C3CC=C4CC(OC(=O)Nc5ccc(S(=O)(=O)N(C)C)cc5)CCC4(C)C3CCC12C (centres undefined)
inactive: dose: 100.0 mg/kg/injection, schedule: Q01DX001 (sc), vehicle: steriod suspending solution 103 % of control | dose: 200.0 mg/kg/injection, schedule: Q01DX001 (sc), vehicle: steriod suspending solution 103 % of control | dose: 400.0 mg/kg/injection, schedule: Q01DX001 (sc), vehicle: steriod suspending solution 103 % of control

O=C1OCCN1/N=C\c1ccccc1
inactive: dose: 100.0 mg/kg/injection, schedule: Q01DX009 (ip), vehicle: other 116 % of control | dose: 200.0 mg/kg/injection, schedule: Q01DX009 (ip), vehicle: other 98 % of control | dose: 400.0 mg/kg/injection, schedule: Q01DX009 (ip), vehicle: other 97 % of control

O=C(CCl)NCc1ccc(Cl)c(C(=O)O)c1
inactive: [15] 103 % of control | [16] 98 % of control | [17] 99 % of control | [18] 88 % of control | [19] 89 % of control | [20] 96 % of control

CN1C(=O)CCS(=O)(=O)C1c1ccc(Cl)c(Cl)c1 (centres undefined)
inactive: dose: 12.5 mg/kg/injection, schedule: Q01DX009 (ip), vehicle: Klucel (hydroxypropylcellulose) (HPC) 101 % of control | dose: 25.0 mg/kg/injection, schedule: Q01DX009 (ip), vehicle: Klucel (hydroxypropylcellulose) (HPC) 114 % of control | dose: 25.0 mg/kg/injection, schedule: Q04DX003 (ip), vehicle: Klucel (hydroxypropylcellulose) (HPC) 105 % of control | [14] 103 % of control | dose: 50.0 mg/kg/injection, schedule: Q04DX003 (ip), vehicle: Klucel (hydroxypropylcellulose) (HPC) 100 % of control | [1] 110 % of control | [7] 105 % of control | [2] 104 % of control | [8] 108 % of control

O=C(CS)NNC(=O)CS
inactive: dose: 100.0 mg/kg/injection, schedule: Q04DX002 (ip), vehicle: Klucel (hydroxypropylcellulose) (HPC) 93 % of control | [16] 104 % of control | dose: 200.0 mg/kg/injection, schedule: Q04DX002 (ip), vehicle: Klucel (hydroxypropylcellulose) (HPC) 96 % of control | [18] 110 % of control | dose: 400.0 mg/kg/injection, schedule: Q04DX002 (ip), vehicle: Klucel (hydroxypropylcellulose) (HPC) 104 % of control | [20] 86 % of control

COc1cc2c(cc1OC)C(=O)C(C(=O)c1ccccc1)C2 (centres undefined)
inactive: [7] 89 % of control | [8] 109 % of control | [10] 94 % of control

O=C(Cl)c1ccccc1Sc1ccccc1
inactive: dose: 25.0 mg/kg/injection, schedule: Q01DX009 (ip), vehicle: saline with Tween-80 106 % of control | [11] 97 % of control | [12] 92 % of control

CC(C)(N)CC(=O)Oc1ccccc1
inactive: dose: 37.5 mg/kg/injection, schedule: Q04DX003 (ip), vehicle: saline 97 % of control | [5] 104 % of control | [6] 101 % of control | dose: 150.0 mg/kg/injection, schedule: Q04DX003 (ip), vehicle: saline 92 % of control

CN(C)S(=O)(=O)Oc1ccc(S(=O)(=O)F)cc1Cl
inactive: dose: 100.0 mg/kg/injection, schedule: Q04DX002 (ip), vehicle: saline 112 % of control | dose: 200.0 mg/kg/injection, schedule: Q04DX002 (ip), vehicle: saline 104 % of control | dose: 400.0 mg/kg/injection, schedule: Q04DX002 (ip), vehicle: saline 112 % of control

CCCCCCCNC(C)(C)C(SSSC(c1ccc(Cl)cc1)C(C)(C)NCCCCCCC)c1ccc(Cl)cc1 (centres undefined)
inactive: [7] 101 % of control | [8] 101 % of control | [10] 98 % of control

CCN(CC)CC(O)COc1ccccc1C (centres undefined)
inactive: dose: 5.0 mg/kg/injection, schedule: Q01DX001 (ip), vehicle: saline 101 % of control | dose: 10.0 mg/kg/injection, schedule: Q01DX001 (ip), vehicle: saline 101 % of control | dose: 20.0 mg/kg/injection, schedule: Q01DX001 (ip), vehicle: saline 104 % of control | dose: 40.0 mg/kg/injection, schedule: Q01DX001 (ip), vehicle: saline 104 % of control | dose: 80.0 mg/kg/injection, schedule: Q01DX001 (ip), vehicle: saline 101 % of control | [15] 102 % of control

CC(C)C1NC(=O)C(Cc2c[nH]c3ccccc23)NC1=O (centres undefined)
inactive: [15] 101 % of control | [17] 101 % of control | [19] 91 % of control

O=C(Nc1ccccc1)Nc1ccc(F)cc1
inactive: [12] 100 % of control | [3] 101 % of control | [13] 94 % of control | [4] 99 % of control | dose: 400.0 mg/kg/injection, schedule: Q01DX009 (ip), vehicle: saline with Tween-80 96 % of control | dose: 400.0 mg/kg/injection, schedule: Q04DX003 (ip), vehicle: saline with Tween-80 105 % of control

CC1CCCCN1C(=O)Nc1cccc(F)c1 (centres undefined)
inactive: [1] 104 % of control | [2] 102 % of control | [9] 111 % of control

CC(=O)OCC(OC(C)=O)C(OC(C)=O)C(OC(C)=O)C(COC(=O)c1ccccc1)OC(=O)c1ccccc1 (centres undefined)
inactive: [21] 108 % of control | [22] 89 % of control | [23] 104 % of control
